Values quoted from earlier work, collected in US20030175329A1, “Semisolid topical hormonal compositions and methods for treatment” (Cellegy Pharmaceuticals, Inc., priority 2001, published 2003).

Experiments:
[1] = 6 months
healthy males = settings: 200 mg IM weekly
hypogonadal males = settings: oral doses for at least 60 days; 23 hypogonadal males

## C[C@]12CC[C@H]3[C@@H](CCC4=CC(=O)CC[C@@]43C)[C@@H]1CC[C@@H]2O [Testosterone, testosterone]
Following IM injection
  dose excreted in urine as glucuronide and sulfate conjugates of testosterone and its metabolites: about 90%
In vivo
  excreted mostly unconjugated in the feces: About 6%

## CCCCCCC(=O)O[C@H]1CC[C@H]2[C@@H]3CCC4=CC(=O)CC[C@]4(C)[C@H]3CC[C@]12C [testosterone enanthate]
[1]
  serum BT levels maintained within the normal range throughout the dosing interval: 39%
  serum DHT levels maintained within the normal range throughout the dosing interval: 70%
  serum E2 levels maintained within the normal range throughout the dosing interval: 35%
  serum T levels maintained within the normal range throughout the dosing interval: 72%
Healthy males
  decrease of high-density lipoprotein cholesterol: 14-18%

## CCCCCCCCCCC(=O)O[C@H]1CC[C@H]2[C@@H]3CCC4=CC(=O)CC[C@]4(C)[C@H]3CC[C@]12C [testosterone undecanoate]
Hypogonadal males
  men with measurable improvement in sexual attitudes and performance: 61%
